Assay results: US20130252988A1, “COMPOSITIONS AND METHODS FOR TREATING MYELOFIBROSIS” (TARGEGEN, INC., priority 2010, published 2013)
Counter-ions that a name gives are not always drawn. Like-named read-outs stand apart in the source and are kept apart here.

Test system: subjects with myelofibrosis
Conditions: for Discontinuation because of adverse event, number of subjects / Discontinued, subjects n (%): Table 1
[1] = Example 1, patients who started at =680 mg
[2] = Example 1, started at =680 mg, 24 patients not requiring RBC transfusions at baseline
[3] = MTD cohort, at least possibly related
[4] = Table 3: treatment-emergent hematologic toxicity, MTD subjects (N = 40)
[5] = Table 4: treatment-emergent non-hematologic AE, MTD subjects (N = 40)
[6] = Table 5: treatment-emergent non-hematologic laboratory finding, MTD subjects (N = 40)

Cc1cnc(Nc2ccc(OCCN3CCCC3)cc2)nc1Nc1cccc(S(=O)(=O)NC(C)(C)C)c1 [TG101348, N-tert-butyl-3-[(5-methyl-2-{[4-(2-pyrrolidin-1-ylethoxy)phenyl]amino}pyrimidin-4-yl)amino]benzenesulfonamide dihydrochloride monohydrate]
Patients who experienced DLT (800 mg/day): 2 of 6
Subjects who discontinued treatment during the extension study (Eight of 43 subjects): 19%
Patients who discontinued treatment (Example 1, 18 of 59 patients, median follow-up 12 weeks): 31%
Asymptomatic hyperlipasemia, patients [1]: 33%
Gr1/2 serum creatinine elevation, patients [1]: 38%
Gr3 diarrhea, number of patients [1]: 3
Gr3 nausea, number of patients [1]: 1
Gr3 neutropenia, patients [1]: 15%
Gr3 thrombocytopenia, patients [1]: 20%
Gr3 vomiting, number of patients [1]: 1
Gr4 neutropenia, patients [1]: 0%
Gr4 thrombocytopenia, patients [1]: 10%
Grade 1/2 transaminitis, patients [1]: 38%
Grade 3 anemia, patients [2]: 42%
Grade 4 anemia, patients [2]: 8%
Grade 3/4 neutropenia, patients (Example 1 background): 14%
Grade 3/4 thrombocytopenia, patients (Example 1 background): 25%
Long-term toxicities (Example 2 conclusions): no long-term toxicities
Subjects who discontinued treatment during the first 6 cycles (Fifteen of 59 subjects): 25%
Reason for discontinuation of study (MF-TG101348-001, subject 101-040, starting 680, termination 520 mg/day, 24 days, possibly related): Adverse events - diarrhea (grade 3; possibly
Reason for discontinuation of study (MF-TG101348-001, subject 102-019, starting dose 520, dose at termination 520 mg/day, 42 days of treatment, probably related): Adverse event - neutropenia (grade 3;
Reason for discontinuation of study (MF-TG101348-001, subject 104-027, starting 800, termination 680 mg/day, 77 days, possibly related): Adverse event - thrombocytopenia (grade 4;
Reason for discontinuation of study (MF-TG101348-001, subject 104-029, starting 680, termination 680 mg/day, 44 days, not related, also embolic stroke (grade 3; not related)): Adverse event - endocarditis (grade 3; not
Reason for discontinuation of study (MF-TG101348-001, subject 105-059, starting 680, termination 360 mg/day, 27 days, possibly related): Adverse event - cardiac arrest (grade 5;
Reason for discontinuation of study (MF-TG101348-001, subject 106-028, starting 800, termination 520 mg/day, 44 days, possibly related): Adverse event - thrombocytopenia (grade 4;
Subjects with serious adverse events considered at least possibly related to TG101348 (MF-TG101348-001 and -002): 8 subjects
Reason for discontinuation of study (MF-TG101348-002, subject 101-047, starting 680, termination 320 mg/day, cumulative 233 days, possibly related): Adverse event - elevated creatinine (grade 2;
Reason for discontinuation of study (MF-TG101348-002, subject 104-015, starting 360, termination 520 mg/day, cumulative 257 days, possibly related): Adverse event - depression (grade 3;
Reason for discontinuation of study (MF-TG101348-002, subject 104-017, starting 520, termination 200 mg/day, cumulative 309 days): Investigator discretion - disease progression
Reason for discontinuation of study (MF-TG101348-002, subject 105-013, starting 240, termination 360 mg/day, cumulative 321 days, probably related): Adverse event - thrombocytopenia (grade 4;
Grades 3/4 asymptomatic increase in ALT, subjects (MTD cohort): 8%
Grades 3/4 asymptomatic increase in AST, subjects (MTD cohort): 3%
Grades 3/4 asymptomatic increase in serum lipase, subjects (MTD cohort): 15%
Grades 3/4 increase in alkaline phosphatase, subjects (MTD cohort): 0%
Grades 3/4 increase in creatinine, subjects (MTD cohort): 0%
Subjects who required dose-reduction during the first 6 cycles (MTD cohort (n=40), 28 subjects): 70%
Grade 3 diarrhea, subjects [3]: 13%
Grade 3 nausea, subjects [3]: 5%
Grade 3 vomiting, subjects [3]: 3%
Dose-reduction, primary reason ALT elevation (MTD cohort, first 6 cycles): 7.5%
Dose-reduction, primary reason amylase/lipase elevation (MTD cohort, first 6 cycles): 10%
Dose-reduction, primary reason cytopenia(s) (MTD cohort, first 6 cycles): 20%
Dose-reduction, primary reason gastrointestinal adverse events (MTD cohort, first 6 cycles): 12.5%
Dose-reduction, primary reason investigator discretion (MTD cohort, first 6 cycles): 7.5%
Dose-reduction, primary reason other adverse events (MTD cohort, first 6 cycles): 12.5%
Maximum tolerated dose (MTD) (Phase I study, myelofibrosis): 680 mg
Discontinuation because of adverse event, number of subjects (MTD (40 enrolled)): 5
Discontinued, subjects n (%) (MTD (initiated at 680 or 800 mg/day; 40 enrolled)): 11 (28%)
Discontinuation because of adverse event, number of subjects (Overall (59 enrolled)): 6
Discontinued, subjects n (%) (Overall (59 enrolled)): 15 (25%)
Anemia: New Transfusion Requirement on Study, subjects n (%) (Table 3: MTD subjects not transfusion dependent at baseline (N = 24), transfusion on at least 2 occasions for Hb <10 g/dL): 16 (67%)
Neutropenia Grade 3, subjects n (%) [4]: 6 (15%)
Neutropenia Grade 4, subjects n (%) [4]: 0
Thrombocytopenia Grade 3, subjects n (%) [4]: 8 (20%)
Thrombocytopenia Grade 4, subjects n (%) [4]: 5 (13%)
Abdominal pain Grade 1, subjects n (%) [5]: 5 (13%)
Abdominal pain Grade 2, subjects n (%) [5]: 0
Abdominal pain Grade 3, subjects n (%) [5]: 0
Abdominal pain Grade 4, subjects n (%) [5]: 0
Anorexia Grade 1, subjects n (%) [5]: 7 (18%)
Anorexia Grade 2, subjects n (%) [5]: 0
Anorexia Grade 3, subjects n (%) [5]: 1 (3%)
Anorexia Grade 4, subjects n (%) [5]: 0
Constipation Grade 1, subjects n (%) [5]: 6 (15%)
Constipation Grade 2, subjects n (%) [5]: 1 (3%)
Constipation Grade 3, subjects n (%) [5]: 0
Constipation Grade 4, subjects n (%) [5]: 0
Contusion Grade 1, subjects n (%) [5]: 5 (13%)
Contusion Grade 2, subjects n (%) [5]: 0
Contusion Grade 3, subjects n (%) [5]: 0
Contusion Grade 4, subjects n (%) [5]: 0
Diarrhea Grade 1, subjects n (%) [5]: 21 (53%)
Diarrhea Grade 2, subjects n (%) [5]: 4 (10%)
Diarrhea Grade 3, subjects n (%) [5]: 5 (13%)
Diarrhea Grade 4, subjects n (%) [5]: 0
Edema peripheral Grade 1, subjects n (%) [5]: 7 (18%)
Edema peripheral Grade 2, subjects n (%) [5]: 1 (3%)
Edema peripheral Grade 3, subjects n (%) [5]: 0
Edema peripheral Grade 4, subjects n (%) [5]: 0
Fatigue Grade 1, subjects n (%) [5]: 2 (5%)
Fatigue Grade 2, subjects n (%) [5]: 3 (8%)
Fatigue Grade 3, subjects n (%) [5]: 1 (3%)
Fatigue Grade 4, subjects n (%) [5]: 0
Headache Grade 1, subjects n (%) [5]: 4 (10%)
Headache Grade 2, subjects n (%) [5]: 1 (3%)
Headache Grade 3, subjects n (%) [5]: 0
Headache Grade 4, subjects n (%) [5]: 0
Nausea Grade 1, subjects n (%) [5]: 20 (50%)
Nausea Grade 2, subjects n (%) [5]: 6 (15%)
Nausea Grade 3, subjects n (%) [5]: 2 (5%)
Nausea Grade 4, subjects n (%) [5]: 0
Proteinuria Grade 1, subjects n (%) [5]: 2 (5%)
Proteinuria Grade 2, subjects n (%) [5]: 3 (8%)
Proteinuria Grade 3, subjects n (%) [5]: 0
Proteinuria Grade 4, subjects n (%) [5]: 0
Vomiting Grade 1, subjects n (%) [5]: 20 (50%)
Vomiting Grade 2, subjects n (%) [5]: 7 (18%)
Vomiting Grade 3, subjects n (%) [5]: 1 (3%)
Vomiting Grade 4, subjects n (%) [5]: 0
ALT increased Grade 2, subjects n (%) [6]: 8 (20%)
ALT increased Grade 3, subjects n (%) [6]: 2 (5%)
ALT increased Grade 4, subjects n (%) [6]: 0
AST increased Grade 2, subjects n (%) [6]: 5 (13%)
AST increased Grade 3, subjects n (%) [6]: 1 (3%)
AST increased Grade 4, subjects n (%) [6]: 0
Creatinine increased Grade 2, subjects n (%) [6]: 11 (28%)
Creatinine increased Grade 3, subjects n (%) [6]: 0
Creatinine increased Grade 4, subjects n (%) [6]: 0
Hyperamylasemia Grade 2, subjects n (%) [6]: 0
Hyperamylasemia Grade 3, subjects n (%) [6]: 1 (3%)
Hyperamylasemia Grade 4, subjects n (%) [6]: 1 (3%)
Hyperkalemia Grade 2, subjects n (%) [6]: 3 (8%)
Hyperkalemia Grade 3, subjects n (%) [6]: 2 (5%)
